The values below are quoted from earlier work in US20180318450A1, “ENHANCED SURGICAL VISUALIZATION OF VIABLE TISSUE WITH SELECTIVE DYE” (priority 2017, published 2018).

The data set concerns tumor proliferation. Conditions: toxin attached to C-terminus of ph low insertion peptide, cells in acidic environment.

Structures are written as SMILES. Starred links: 1 amine or outer side, 2 acyl side, 3 side chain; linkers in the order of their positions; H or OH if unused. Positions of bridges follow the written chain, without caps; N, C: chain ends. Non-standard residues stand in square brackets, D forms with d. Residues, ends and D or L forms follow the SMILES beside them. Trp(2-yl) = O=C([C@H](Cc1c([*:3])[nH]c2ccccc12)N[*:1])[*:2]; Leu(4R-OH,5-OH) = C[C@](O)(CO)C[C@H](N)C(=O)O; cisHyp = O=C(O)[C@@H]1C[C@H](O)CN1

For the compound `C[C@@H]1NC(=O)[C@H](C[C@@](C)(O)CO)NC(=O)[C@@H]2Cc3c([nH]c4ccccc34)SC[C@H](NC(=O)[C@@H]([C@H](C)O)NC1=O)C(=O)N1C[C@@H](O)C[C@H]1C(=O)N[C@@H](C)C(=O)N2` [phalloidin] (cyclo(A[dT]C[cisHyp]A[Trp(2-yl)][Leu(4R-OH,5-OH)]); thioether 3-6), the tumor proliferation result is listed as “prohibited tumor proliferation”.
